Assay results as given in patent US7858635B2 (priority 2005, dated 2010).
Where two headings read alike, the source gives them in different places.

Assays:
M1 muscarinic receptor = target: T1, M1 muscarinic receptor (Homo sapiens, UniProt P11229); test: Functional mobilization of intracellular calcium (FLIPR, Fluo-3), M1-CHO cells; type: cell-based; conditions: for Emax: read-out: M1 Efficacy
T1 construct: expressed in transfected cells; host or cells: CHO cells (M1-CHO, under zeocin and G418 selection)
T1 sequence (P11229 1-460): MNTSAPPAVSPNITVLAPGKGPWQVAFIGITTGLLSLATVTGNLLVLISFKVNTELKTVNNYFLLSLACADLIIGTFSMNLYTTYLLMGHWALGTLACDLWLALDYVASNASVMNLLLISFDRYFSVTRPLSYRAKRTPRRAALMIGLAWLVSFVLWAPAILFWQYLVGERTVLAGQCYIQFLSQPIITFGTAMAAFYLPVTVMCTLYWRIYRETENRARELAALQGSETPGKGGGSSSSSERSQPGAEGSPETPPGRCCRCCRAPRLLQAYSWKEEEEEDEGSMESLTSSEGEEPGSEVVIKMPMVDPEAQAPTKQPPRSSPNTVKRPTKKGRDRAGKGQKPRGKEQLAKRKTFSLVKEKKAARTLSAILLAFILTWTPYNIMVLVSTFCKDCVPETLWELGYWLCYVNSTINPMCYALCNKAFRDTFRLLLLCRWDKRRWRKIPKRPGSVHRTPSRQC
Outline: (§1)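 CHO lines stably carrying the muscarinic subtype, dye-loaded with Fluo-3 at 37° C for 60-90 min, receive test compound in 0.5% DMSO. Agonist effects are read directly; antagonist effects against carbachol at EC80 after 15 min pre-incubation.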

M4 muscarinic receptor = target: T2, M4 muscarinic receptor (Homo sapiens, UniProt P08173); test: Functional mobilization of intracellular calcium (FLIPR, Fluo-3), M4-CHO cells; type: cell-based; conditions: for Emax: read-out: M4 Efficacy
T2 construct: expressed in transfected cells; host or cells: CHO cells (M4-CHO, under puromycin, zeocin and blasticidin selection)
T2 sequence (P08173 1-479): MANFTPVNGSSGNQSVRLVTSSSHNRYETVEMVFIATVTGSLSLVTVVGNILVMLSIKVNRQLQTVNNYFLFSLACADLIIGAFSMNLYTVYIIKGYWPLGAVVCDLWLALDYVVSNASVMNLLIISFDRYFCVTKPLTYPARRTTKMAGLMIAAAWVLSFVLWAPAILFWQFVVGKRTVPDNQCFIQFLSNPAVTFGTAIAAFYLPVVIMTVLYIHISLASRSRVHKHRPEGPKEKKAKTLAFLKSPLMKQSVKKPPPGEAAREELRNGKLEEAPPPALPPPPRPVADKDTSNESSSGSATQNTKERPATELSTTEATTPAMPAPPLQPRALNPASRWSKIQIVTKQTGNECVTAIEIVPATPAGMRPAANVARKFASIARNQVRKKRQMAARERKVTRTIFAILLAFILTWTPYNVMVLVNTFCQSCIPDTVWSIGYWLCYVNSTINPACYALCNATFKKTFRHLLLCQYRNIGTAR
Outline: as §1

[1] = compound nos. 1-454, 100% efficacy is the maximum response obtained with the Carbachol control
[2] = compound nos. 1-454, M1-CHO cells, calcium mobilization
[3] = compound nos. 1-454, M4-CHO cells, calcium mobilization
[4] = compound nos. 455-509, 100% efficacy is the maximum response obtained with the Carbachol control

Compound	Emax (M1 muscarinic receptor; [1]) [%]	M1 Activity (M1 muscarinic receptor; [2])	Emax (M4 muscarinic receptor; [1]) [%]	M4 Activity (M4 muscarinic receptor; [3])	also measured
CC(=O)N1CC2(CCN(C3CC4CCC3C4)CC2)c2cc(C)ccc21 (stereo not drawn) [compound 138]	65 to 85	+++ (activity was measured to be less than or equal to 0.7 μM)	55 to 70	+ (activity was measured to be greater than or equal to 4.0 μM)	
CCCc1ccc2c(c1)C1(CCN(C3CCN(C(=O)OCC)CC3)CC1)CN2C(C)=O [compound 74]	65 to 85	+++ (activity was measured to be less than or equal to 0.7 μM)	55 to 70	++ (activity was measured to be between 0.1 μM and 4.0 μM)	
CCOC(=O)N1CCC(N2CCC3(CC2)CN(C(=O)C2CC2)c2ccc(F)cc23)CC1 [compound 136]	> 85	+++ (activity was measured to be less than or equal to 0.7 μM)	> 70	+++ (activity was measured to be less than or equal to 0.1 μM)	
Fc1ccc2c(c1)C1(CCN(CC3CC4C=CC3C4)CC1)CN2 (stereo not drawn) [compound 183]	65 to 85	++ (activity was measured to be between 0.7 μM and 3.0 μM)	55 to 70	+ (activity was measured to be greater than or equal to 4.0 μM)	
CC(C)C(=O)N[C@H]1CC2(CCN(C[C@H]3C[C@H]4CC[C@H]3C4)CC2)c2ccccc21 [compound 55]	> 85	+++ (activity was measured to be less than or equal to 0.7 μM)	55 to 70	+++ (activity was measured to be less than or equal to 0.1 μM)	
CCOC(=O)N1CCC(N2CCC3(CC2)C(=O)N(C)c2ccccc23)CC1 [compound 31]	> 85	+++ (activity was measured to be less than or equal to 0.7 μM)	55 to 70	+++ (activity was measured to be less than or equal to 0.1 μM)	
CS(=O)(=O)N1CC2(CCN(C3CC4CCC(C3)N4C(=O)OC3CCC3)CC2)c2cc(F)ccc21 (stereo not drawn) [compound 122]	65 to 85	+++ (activity was measured to be less than or equal to 0.7 μM)	< 55	++ (activity was measured to be between 0.1 μM and 4.0 μM)	
CCCC1CCC(N2CCC3(CC2)CNc2ccc(F)cc23)CC1 (stereo not drawn) [compound 328]	< 65	++ (activity was measured to be between 0.7 μM and 3.0 μM)	55 to 70	+ (activity was measured to be greater than or equal to 4.0 μM)	
CC(=O)N1CC2(CCN(C3CCCC3)CC2)c2cc(F)ccc21 [compound 343]	65 to 85	+++ (activity was measured to be less than or equal to 0.7 μM)	< 55	+++ (activity was measured to be less than or equal to 0.1 μM)	
CCOC(=O)N(C)[C@H]1CC2(CCN(C[C@H]3C[C@H]4CC[C@H]3C4)CC2)c2ccccc21 [compound 347]	65 to 85	+++ (activity was measured to be less than or equal to 0.7 μM)	> 70	++ (activity was measured to be between 0.1 μM and 4.0 μM)	
Cc1nsc(N2CC3(CCN(C4CC5CCC(C4)N5c4nc(C)ns4)CC3)c3ccccc32)n1 (stereo not drawn) [compound 477]					Emax (M1 muscarinic receptor; [4]): > 100%; M1 Activity (M1 muscarinic receptor; compounds 455-509): +++ (activity was measured to be less than or equal to 2.0 μM); Emax (M4 muscarinic receptor; [4]): 25 to 100%; M4 Activity (M4 muscarinic receptor; compounds 455-509): ++ (activity was measured to be between 2.0 μM and 5.0 μM)
CN(C)C(=O)N1CC2(CCN(C3CCN(c4ccc(F)cc4)CC3)CC2)c2cc(F)ccc21 [compound 439]	65 to 85		< 55		M1 Activity (M1 muscarinic receptor; compound nos. 1-454): ++ (activity was measured to be between 0.7 μM and 3.0 μM); M4 Activity (M4 muscarinic receptor; compound nos. 1-454): +++ (activity was measured to be less than or equal to 0.1 μM)
CCCOC(=O)N1C2CCC1CC(N1CCC3(CC1)CN(C(=O)OC)c1ccc(F)cc13)C2 (stereo not drawn) [compound 386]	< 65		< 55		M1 Activity (M1 muscarinic receptor; compound nos. 1-454): ++ (activity was measured to be between 0.7 μM and 3.0 μM); M4 Activity (M4 muscarinic receptor; compound nos. 1-454): ++ (activity was measured to be between 0.1 μM and 4.0 μM)
CCOC(=O)N[C@@H]1CC2(CCN(C[C@H]3C[C@H]4CC[C@H]3C4)CC2)c2ccccc21 [compound 275]	65 to 85	+++ (activity was measured to be less than or equal to 0.7 μM)	> 70	++ (activity was measured to be between 0.1 μM and 4.0 μM)	
Cc1cc(C(=O)N2CC3(CCN(C4CC5CCC(C4)N5C(=O)OC(C)C)CC3)c3cc(F)ccc32)nn1C (stereo not drawn) [compound 24]	< 65	++ (activity was measured to be between 0.7 μM and 3.0 μM)	< 55	+ (activity was measured to be greater than or equal to 4.0 μM)	
CC(=O)N1CC2(CCN(CC3CCN(C(=O)O[C@@H]4CCOC4)CC3)CC2)c2cc(F)ccc21 [compound 82]		+++ (activity was measured to be less than or equal to 0.7 μM)		++ (activity was measured to be between 0.1 μM and 4.0 μM)	M1 Efficacy (M1 muscarinic receptor; [1]): ++ (efficacy was calculated to be between 85% and 65%); M4 Efficacy (M4 muscarinic receptor; [1]): ++ (efficacy was calculated to be between 70% and 55%)
CC#CCOC(=O)N1CC2(CCN(C3CCN(C(=O)OCC)CC3)CC2)c2cc(F)ccc21 [compound 346]	< 65	+++ (activity was measured to be less than or equal to 0.7 μM)	< 55	+ (activity was measured to be greater than or equal to 4.0 μM)	
CC#CCOC(=O)N1CCC(N2CCC3(CC2)CN(C(C)=O)c2ccc(F)cc23)CC1 [compound 102]	65 to 85	+++ (activity was measured to be less than or equal to 0.7 μM)	55 to 70	++ (activity was measured to be between 0.1 μM and 4.0 μM)	
CCOC(=O)N1C2CCC1CC(N1CCC3(CC1)CN(C(=O)Nc1c(C)noc1C)c1ccc(F)cc13)C2 (stereo not drawn) [compound 83]	< 65	+++ (activity was measured to be less than or equal to 0.7 μM)	< 55	+ (activity was measured to be greater than or equal to 4.0 μM)	
O=C1CC2(CCN(C3CCCCCC3)CC2)c2ccccc2N1 [compound 242]	65 to 85	+++ (activity was measured to be less than or equal to 0.7 μM)	> 70	++ (activity was measured to be between 0.1 μM and 4.0 μM)	
CCOC(=O)N1C2CCC1CC(N1CCC3(CC1)CN(C(=O)OC1CCC1)c1ccc(F)cc13)C2 (stereo not drawn) [compound 409]	> 85		> 70		M1 Activity (M1 muscarinic receptor; compound nos. 1-454): +++ (activity was measured to be less than or equal to 0.7 μM); M4 Activity (M4 muscarinic receptor; compound nos. 1-454): +++ (activity was measured to be less than or equal to 0.1 μM)
